# In PubChem BioAssay (NCI):
#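 96-well plates; 48 h exposure; 5 concentrations. Endpoints by linear interpolation between flanking doses. Not reached: highest tested concentration assigned. GI50: concentration for 50% inhibition of growth. TGI: total growth inhibition.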
# How the values were obtained:
# Test in all cases: DTP human tumour cell line panel, 48 h
# 786-0 renal = test system: 786-0 renal
# A498 renal = test system: A498 renal
# A549 NSCLC = test system: A549 NSCLC
# ACHN renal = test system: ACHN renal
# BT-549 breast = test system: BT-549 breast
# CAKI-1 renal = test system: CAKI-1 renal
# CCRF-CEM leukemia = test system: CCRF-CEM leukemia
# COLO 205 colon = test system: COLO 205 colon
# DU-145 prostate = test system: DU-145 prostate
# EKVX NSCLC = test system: EKVX NSCLC
# HCC-2998 colon = test system: HCC-2998 colon
# HCT-116 colon = test system: HCT-116 colon
# HCT-15 colon = test system: HCT-15 colon
# HL-60(TB) leukemia = test system: HL-60(TB) leukemia
# HOP-62 NSCLC = test system: HOP-62 NSCLC
# HOP-92 NSCLC = test system: HOP-92 NSCLC
# HS 578T breast = test system: HS 578T breast
# HT29 colon = test system: HT29 colon
# IGROV1 ovarian = test system: IGROV1 ovarian
# K-562 leukemia = test system: K-562 leukemia
# KM12 colon = test system: KM12 colon
# LOX IMVI melanoma = test system: LOX IMVI melanoma
# M14 melanoma = test system: M14 melanoma
# MALME-3M melanoma = test system: MALME-3M melanoma
# MCF7 breast = test system: MCF7 breast
# MDA-MB-231 breast = test system: MDA-MB-231 breast
# MDA-MB-435 = test system: MDA-MB-435
# MDA-MB-468 breast = test system: MDA-MB-468 breast
# MOLT-4 leukemia = test system: MOLT-4 leukemia
# NCI-H226 lung = test system: NCI-H226 lung
# NCI-H23 lung = test system: NCI-H23 lung
# NCI-H460 lung = test system: NCI-H460 lung
# NCI-H522 lung = test system: NCI-H522 lung
# NCI/ADR-RES ovarian = test system: NCI/ADR-RES ovarian
# OVCAR-3 ovarian = test system: OVCAR-3 ovarian
# OVCAR-4 ovarian = test system: OVCAR-4 ovarian
# OVCAR-5 ovarian = test system: OVCAR-5 ovarian
# OVCAR-8 ovarian = test system: OVCAR-8 ovarian
# PC-3 prostate = test system: PC-3 prostate
# RPMI-8226 leukemia = test system: RPMI-8226 leukemia
# RXF 393 renal = test system: RXF 393 renal
# SF-268 CNS = test system: SF-268 CNS
# SF-295 CNS = test system: SF-295 CNS
# SF-539 CNS = test system: SF-539 CNS
# SK-MEL-2 melanoma = test system: SK-MEL-2 melanoma
# SK-MEL-28 melanoma = test system: SK-MEL-28 melanoma
# SK-MEL-5 melanoma = test system: SK-MEL-5 melanoma
# SK-OV-3 ovarian = test system: SK-OV-3 ovarian
# SN12C renal = test system: SN12C renal
# SNB-19 CNS = test system: SNB-19 CNS
# SNB-75 CNS = test system: SNB-75 CNS
# SR leukemia = test system: SR leukemia
# SW-620 colon = test system: SW-620 colon
# T-47D breast = test system: T-47D breast
# TK-10 renal = test system: TK-10 renal
# U251 CNS = test system: U251 CNS
# UACC-257 melanoma = test system: UACC-257 melanoma
# UACC-62 melanoma = test system: UACC-62 melanoma
# UO-31 renal = test system: UO-31 renal
smiles,measurement,setting,value
COc1ccc(NC(=O)N/N=C/c2c[nH]c3ccccc23)cc1,GI50,786-0 renal,1.52 µM
same,TGI,786-0 renal,28.1 µM
same,GI50,A498 renal,> 40.7 µM
same,TGI,A498 renal,> 88.3 µM
same,GI50,A549 NSCLC,0.815 µM
same,TGI,A549 NSCLC,> 100 µM
same,GI50,ACHN renal,1.74 µM
same,TGI,ACHN renal,> 100 µM
same,GI50,BT-549 breast,0.67 µM
same,TGI,BT-549 breast,> 62.8 µM
same,GI50,CAKI-1 renal,0.678 µM
same,TGI,CAKI-1 renal,> 100 µM
same,GI50,CCRF-CEM leukemia,0.379 µM
same,TGI,CCRF-CEM leukemia,17.6 µM
same,GI50,COLO 205 colon,0.586 µM
same,TGI,COLO 205 colon,3.12 µM
same,GI50,DU-145 prostate,2.05 µM
same,TGI,DU-145 prostate,> 64.1 µM
same,GI50,EKVX NSCLC,3.41 µM
same,TGI,EKVX NSCLC,> 100 µM
same,GI50,HCC-2998 colon,1.91 µM
same,TGI,HCC-2998 colon,24.1 µM
same,GI50,HCT-116 colon,0.389 µM
same,TGI,HCT-116 colon,22.6 µM
same,GI50,HCT-15 colon,0.384 µM
same,TGI,HCT-15 colon,> 52.7 µM
same,GI50,HL-60(TB) leukemia,0.279 µM
same,TGI,HL-60(TB) leukemia,1.53 µM
same,GI50,HOP-62 NSCLC,0.724 µM
same,TGI,HOP-62 NSCLC,> 100 µM
same,GI50,HOP-92 NSCLC,2.29 µM
same,TGI,HOP-92 NSCLC,38.3 µM
same,GI50,HS 578T breast,1.13 µM
same,TGI,HS 578T breast,> 100 µM
same,GI50,HT29 colon,0.357 µM
same,TGI,HT29 colon,5.01 µM
same,GI50,IGROV1 ovarian,0.646 µM
same,TGI,IGROV1 ovarian,> 100 µM
same,GI50,K-562 leukemia,0.235 µM
same,TGI,K-562 leukemia,> 77.1 µM
same,GI50,KM12 colon,0.448 µM
same,TGI,KM12 colon,> 54.5 µM
same,GI50,LOX IMVI melanoma,0.615 µM
same,TGI,LOX IMVI melanoma,> 46.6 µM
same,GI50,M14 melanoma,0.34 µM
same,TGI,M14 melanoma,> 100 µM
same,GI50,MALME-3M melanoma,0.547 µM
same,TGI,MALME-3M melanoma,> 100 µM
same,GI50,MCF7 breast,0.61 µM
same,TGI,MCF7 breast,> 100 µM
same,GI50,MDA-MB-231 breast,1.01 µM
same,TGI,MDA-MB-231 breast,56 µM
same,GI50,MDA-MB-435,0.255 µM
same,TGI,MDA-MB-435,1.89 µM
same,GI50,MDA-MB-468 breast,0.911 µM
same,TGI,MDA-MB-468 breast,4.4 µM
same,GI50,MOLT-4 leukemia,0.502 µM
same,TGI,MOLT-4 leukemia,50.7 µM
same,GI50,NCI-H226 lung,11 µM
same,TGI,NCI-H226 lung,> 100 µM
same,GI50,NCI-H23 lung,2.14 µM
same,TGI,NCI-H23 lung,> 51.7 µM
same,GI50,NCI-H460 lung,0.579 µM
same,TGI,NCI-H460 lung,26.3 µM
same,GI50,NCI-H522 lung,0.249 µM
same,TGI,NCI-H522 lung,0.879 µM
same,GI50,NCI/ADR-RES ovarian,0.308 µM
same,TGI,NCI/ADR-RES ovarian,1.44 µM
same,GI50,OVCAR-3 ovarian,0.38 µM
same,TGI,OVCAR-3 ovarian,2.81 µM
same,TGI,OVCAR-4 ovarian,> 100 µM
same,GI50,OVCAR-5 ovarian,2 µM
same,TGI,OVCAR-5 ovarian,> 83.7 µM
same,GI50,OVCAR-8 ovarian,0.801 µM
same,TGI,OVCAR-8 ovarian,24.6 µM
same,GI50,PC-3 prostate,1.65 µM
same,TGI,PC-3 prostate,> 100 µM
same,GI50,RPMI-8226 leukemia,1.09 µM
same,TGI,RPMI-8226 leukemia,15.3 µM
same,GI50,RXF 393 renal,1 µM
same,TGI,RXF 393 renal,11.3 µM
same,GI50,SF-268 CNS,5.44 µM
same,TGI,SF-268 CNS,> 81.4 µM
same,GI50,SF-295 CNS,0.458 µM
same,TGI,SF-295 CNS,> 32.7 µM
same,GI50,SF-539 CNS,0.391 µM
same,TGI,SF-539 CNS,2.2 µM
same,GI50,SK-MEL-2 melanoma,0.294 µM
same,TGI,SK-MEL-2 melanoma,28.8 µM
same,GI50,SK-MEL-28 melanoma,3.31 µM
same,TGI,SK-MEL-28 melanoma,> 100 µM
same,GI50,SK-MEL-5 melanoma,0.524 µM
same,TGI,SK-MEL-5 melanoma,5.18 µM
same,GI50,SK-OV-3 ovarian,1.98 µM
same,TGI,SK-OV-3 ovarian,> 100 µM
same,GI50,SN12C renal,1.03 µM
same,TGI,SN12C renal,> 56.7 µM
same,GI50,SNB-19 CNS,1.83 µM
same,TGI,SNB-19 CNS,> 100 µM
same,GI50,SNB-75 CNS,1.41 µM
same,TGI,SNB-75 CNS,12.1 µM
same,GI50,SR leukemia,0.25 µM
same,TGI,SR leukemia,> 53.4 µM
same,GI50,SW-620 colon,0.517 µM
same,TGI,SW-620 colon,> 100 µM
same,GI50,T-47D breast,1.31 µM
same,TGI,T-47D breast,> 100 µM
same,GI50,TK-10 renal,7.83 µM
same,TGI,TK-10 renal,98.2 µM
same,GI50,U251 CNS,0.431 µM
same,TGI,U251 CNS,> 89.1 µM
same,GI50,UACC-257 melanoma,> 100 µM
same,TGI,UACC-257 melanoma,> 100 µM
same,GI50,UACC-62 melanoma,0.364 µM
same,TGI,UACC-62 melanoma,> 47.3 µM
same,GI50,UO-31 renal,1.87 µM
same,TGI,UO-31 renal,> 100 µM
